Data published in ChEMBL document CHEMBL5390242, “Design, Synthesis, and Antitumor Efficacy of Substituted 2-Amino[1,2,4]triazolopyrimidines and Related Heterocycles as Dual Inhibitors for Microtubule Polymerization and Janus Kinase 2” (J Med Chem, 2023).
Active and inactive are the calls of the source. No cut-off for these calls is given here.

Legend:
[1] = test system: KP-4; experiment: Antiproliferative activity against human KP-4 cells assessed as cell growth inhibition incubated for 48 hrs by MTT assay; type: functional, cell-based; details: KP-4, 48 h
[2] = test system: A549; experiment: Antiproliferative activity against human A549 cells assessed as cell growth inhibition incubated for 48 hrs by MTT assay; type: functional, cell-based; details: A549, 48 h
[3] = biological target: Tyrosine-protein kinase JAK2 (Homo sapiens, UniProt O60674); experiment: Inhibition of JAK2 (unknown origin) using Poly-(Glu,Tyr 4:1) peptide as substrate at 1 uM in presence of ATP by ADP-Glo reagent based assay relative to control
Tyrosine-protein kinase JAK2, sequence (O60674 whole entry): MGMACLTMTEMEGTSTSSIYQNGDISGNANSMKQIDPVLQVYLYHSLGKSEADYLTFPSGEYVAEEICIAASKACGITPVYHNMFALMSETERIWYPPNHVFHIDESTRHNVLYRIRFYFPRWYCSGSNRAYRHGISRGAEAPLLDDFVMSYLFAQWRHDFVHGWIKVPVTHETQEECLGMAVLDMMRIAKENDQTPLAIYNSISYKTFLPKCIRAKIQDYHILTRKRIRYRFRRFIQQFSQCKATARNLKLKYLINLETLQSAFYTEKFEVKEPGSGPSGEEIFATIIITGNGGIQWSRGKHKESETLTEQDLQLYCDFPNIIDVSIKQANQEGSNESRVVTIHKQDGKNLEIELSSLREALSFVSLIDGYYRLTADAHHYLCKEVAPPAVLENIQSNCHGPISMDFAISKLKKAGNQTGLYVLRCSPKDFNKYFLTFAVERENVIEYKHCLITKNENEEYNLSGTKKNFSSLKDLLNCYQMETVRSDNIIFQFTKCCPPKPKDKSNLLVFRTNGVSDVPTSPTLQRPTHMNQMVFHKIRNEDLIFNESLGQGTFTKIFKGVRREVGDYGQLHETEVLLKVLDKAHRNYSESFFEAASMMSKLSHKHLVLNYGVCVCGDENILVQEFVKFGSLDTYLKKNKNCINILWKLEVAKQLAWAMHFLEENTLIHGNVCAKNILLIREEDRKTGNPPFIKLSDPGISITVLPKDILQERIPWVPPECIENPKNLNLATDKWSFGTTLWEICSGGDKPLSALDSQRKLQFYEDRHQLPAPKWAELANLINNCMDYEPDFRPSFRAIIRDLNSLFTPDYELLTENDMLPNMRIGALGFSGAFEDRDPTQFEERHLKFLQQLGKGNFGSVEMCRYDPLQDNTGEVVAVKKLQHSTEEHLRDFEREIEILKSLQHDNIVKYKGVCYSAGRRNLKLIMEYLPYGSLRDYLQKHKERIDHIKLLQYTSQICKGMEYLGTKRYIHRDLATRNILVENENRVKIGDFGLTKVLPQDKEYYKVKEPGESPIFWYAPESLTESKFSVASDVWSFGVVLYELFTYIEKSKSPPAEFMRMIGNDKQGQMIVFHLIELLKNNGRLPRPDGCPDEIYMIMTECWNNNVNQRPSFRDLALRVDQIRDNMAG

[4] = test system: A549; experiment: Induction of apoptosis in human A549 cells at 10 uM incubated for 24 hrs by Annexin V-FITC/PI staining based flow cytometry; type: functional
[5] = test system: BXPC-3; experiment: Antiproliferative activity against human BXPC-3 cells assessed as cell growth inhibition incubated for 48 hrs by MTT assay; type: functional, cell-based; details: BXPC-3, 48 h
[6] = Cytotoxicity against human ARPE-19 cells assessed as cell growth inhibition incubated for 48 hrs by MTT assay; type: toxicity, cell-based
[7] = test system: A2780; experiment: Antiproliferative activity against human A2780 cells assessed as cell growth inhibition incubated for 48 hrs by MTT assay; type: functional, cell-based; details: A2780, 48 h
[8] = test system: A2780/Taxol; experiment: Antiproliferative activity against human A2780T cells assessed as cell growth inhibition incubated for 48 hrs by MTT assay; type: functional, cell-based
[9] = Antiproliferative activity against human HCT-8/VCR cells assessed as cell growth inhibition incubated for 48 hrs by MTT assay; type: functional, cell-based
[10] = MRT (0 to t) in CD-1 mouse at 1 mg/kg,iv measured upto 24 hrs by HPLC-MS/MS analysis; type: ADME, organism-based; details: in vivo
[11] = MRT (0 to t) in CD-1 mouse at 10 mg/kg,ip measured upto 24 hrs by HPLC-MS/MS analysis; type: ADME, organism-based; details: in vivo
[12] = MRT (0 to infinity) in CD-1 mouse at 10 mg/kg,ip measured upto 24 hrs by HPLC-MS/MS analysis; type: ADME, organism-based; details: in vivo
[13] = Half life in CD-1 mouse at 10 mg/kg,ip measured upto 24 hrs by HPLC-MS/MS analysis; type: ADME, organism-based; details: in vivo
[14] = AUC (0 to infinity) in CD-1 mouse assessed as AUC (0 to infinity) of metabolite at 10 mg/kg,ip measured upto 24 hrs by HPLC-MS/MS analysis; type: ADME, organism-based; set-up: time < 24 hrs, dose 10 mg/kg, route ip; details: in vivo
[15] = Half life in CD-1 mouse assessed as half life of metabolite at 10 mg/kg,ip measured upto 24 hrs by HPLC-MS/MS analysis; type: ADME, organism-based; details: in vivo
[16] = Oral bioavailability in CD-1 mouse assessed as Oral bioavailability of metabolite at 10 mg/kg,ip measured upto 24 hrs by HPLC-MS/MS analysis; type: ADME, organism-based; details: in vivo
[17] = biological target: Tubulin (Homo sapiens) (UniProt P68371+Q9H4B7+P0DPH7+P68366+Q13509+Q71U36+P04350+Q3ZCM7+P07437+P68363+Q9BQE3+Q6PEY2+Q13885+Q9BVA1+Q9BUF5); experiment: Disruption of microtubule assembly in human A549 cells at 0.1 uM incubated for 6 hrs by Hoechst33342 staining based immunofluorescence analysis; type: cell-based
[18] = biological target: JAK2-STAT3 (Homo sapiens) (UniProt O60674+P40763); experiment: Inhibition of JAK2/STAT3 signalling pathway in human A549 cells assessed as effect on JAK2 protein level at 5 to 20 uM incubated for 24 hrs by Western blotting analysis; type: cell-based; details: dose 5-20 µM
[19] = test system: A549; experiment: Induction of cell cycle arrest in human A549 cells assessed as accumulation of cells at G2/M phase at 10 nM incubated for 24 hrs by PI/RNase staining based flow cytometry analysis; type: functional
[20] = test system: A549; experiment: Induction of apoptosis in human A549 cells assessed as viable cells at 5 nM incubated for 24 hrs by Annexin V-FITC/PI staining based flow cytometry (reference value: 93 %); type: functional; details: read-out: Activity
[21] = test system: A549; experiment: Induction of apoptosis in human A549 cells assessed as viable cells at 10 nM incubated for 24 hrs by Annexin V-FITC/PI staining based flow cytometry (reference value: 93 %); type: functional; details: read-out: Activity
[22] = test system: A549; experiment: Induction of apoptosis in human A549 cells assessed as viable cells at 20 nM incubated for 24 hrs by Annexin V-FITC/PI staining based flow cytometry (reference value: 93 %); type: functional; details: read-out: Activity
[23] = test system: A549; experiment: Induction of apoptosis in human A549 cells assessed as early apoptotic cells at 5 nM incubated for 24 hrs by Annexin V-FITC/PI staining based flow cytometry (reference value: 4.61 %); type: functional
[24] = test system: A549; experiment: Induction of apoptosis in human A549 cells assessed as early apoptotic cells at 10 nM incubated for 24 hrs by Annexin V-FITC/PI staining based flow cytometry (reference value: 4.61 %); type: functional
[25] = test system: A549; experiment: Induction of apoptosis in human A549 cells assessed as late apoptotic cells at 5 nM incubated for 24 hrs by Annexin V-FITC/PI staining based flow cytometry (reference value: 1.72 %); type: functional
[26] = test system: A549; experiment: Induction of apoptosis in human A549 cells assessed as necrotic cells at 5 nM incubated for 24 hrs by Annexin V-FITC/PI staining based flow cytometry (reference value: 0.67 %); type: functional
[27] = test system: A549; experiment: Induction of apoptosis in human A549 cells assessed as increase in intracellular ROS level at 5 to 20 nM incubated for 16 hrs by DCFH-DA staining based fluorescence microscopy; type: functional, cell-based; details: dose 5-20 nM
[28] = test system: A549; experiment: Induction of apoptosis in human A549 cells assessed as reduction of mitochondrial membrane potential at 5 to 20 nM incubated for 16 hrs by JC-1 staining based fluorescence microscopy; type: functional, cell-based; details: dose 5-20 nM
[29] = test system: A549; experiment: Induction of mitochondrial membrane potential loss in human A549 cells by measuring red fluorescence at 5 nM incubated for 16 hrs by JC-1 staining based flow cytometry analysis (reference value: 99.3 %); type: functional
[30] = test system: A549; experiment: Induction of mitochondrial membrane potential loss in human A549 cells by measuring red fluorescence at 20 nM incubated for 16 hrs by JC-1 staining based flow cytometry analysis (reference value: 99.3 %); type: functional
[31] = test system: A549; experiment: Induction of mitochondrial membrane potential loss in human A549 cells by measuring green fluorescence at 20 nM incubated for 16 hrs by JC-1 staining based flow cytometry analysis (reference value: 0.7 %); type: functional
[32] = test system: A549; experiment: Antitumor activity against human A549 cells xenografted in Balb/c mouse assessed as reduction in tumor weight at 50 mg/kg,ip administration measured after 31 days; type: functional; set-up: scale not given: the % may be the effect or the level left; details: time 31 day
[33] = Toxicity in Balb/c mouse xenografted with human A549 cells assessed as change in body weight at 50 mg/kg,ip administration measured after 31 days; type: organism-based; details: in vivo, 744 h, time 31 day
[34] = Toxicity in Balb/c mouse xenografted with human A549 cells assessed as effect on spleen morphology at 50 mg/kg,ip administration measured after 31 days by Hematoxylin-eosin staining based microscopy; type: organism-based; details: in vivo, 744 h, time 31 day
[35] = Acute toxicity in C57BL/6 mouse assessed as maximum tolerated dose administered intravenously for 5 consecutive days; details: in vivo, route iv
[36] = test system: MCF7; experiment: cells; details: Homo sapiens, MCF7, 48 h
Description: Antiproliferative activity against human MCF7 cells assessed as cell growth inhibition incubated for 48 hrs by MTT assay

In the case of `COc1cc(-c2nccc3nc(Nc4cccc5[nH]ccc45)nn23)cc(OC)c1OC`, the IC50 [1] is reported as 0.013 µM, the IC50 [2] is reported as 0.008 µM and the inhibition [3] is reported as 97%. It also gave an Activity [4] of 40.6%, an IC50 [5] of 0.011 µM and an IC50 at 48 h [6] of 5.03 µM. It also gave an IC50 [7] of 0.075 µM, an IC50 [8] of 0.02 µM and an IC50 [9] of 0.049 µM. The MRT last at 24 h [10] was 5.2 h, the MRT last at 24 h [11] was 4.6 h and the MRT inf [12] was 5.6 h. The half-life [13] was 5.5 h, the AUC [14] was 2.6043 µg·h/mL and the t1/2 [15] was 5.3 h. The F [16] was 69.7%, the Activity [17] was “Active” and the inhibition [18] was “inactive”. The Activity [19] was 32.9%, the viability at 0.005 µM [20] was 90.5% and the viability at 0.01 µM [21] was 55.4%. The viability at 0.02 µM [22] was 9.34%, the Activity [23] was 7.51% and the Activity [24] was 27.3%. The Activity [25] was 1.78%, the Activity [26] was 0.21% and the Activity [27] was “Active”. The Activity [28] was “Active”, the Activity [29] was 89.1% and the Activity [30] was 55.9%. The Activity [31] was 44.1%, the Activity [32] was 70% and the Activity [33] was “Non-Toxic”. The Activity [34] was “Non-Toxic”, the MTD at 5 days [35] was 100 mg/kg and the IC50 [36] was 0.018 µM.
